Experimental data taken from patent US10682371B2, “Small molecule conjugates specifically activated in tumor microenvironment for targeting and use thereof” (priority 2014, dated 2020).
Like-named read-outs stand apart in the source and are kept apart here.

What was measured:
D121 lung tumor cells = assay type: in vivo, C57 mice; details: for Treatment effects on C57 mice, in words: compared to the control group and the other treatment groups
Summary of the method: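 Endpoint is tumor inhibition rate from tumor size (mm^3) after weekly drug treatment for 4 weeks, begun once s.c. tumors from 10^6 live D121 cells reached 0.3-0.4 cm. Before challenge, C57 mice received three i.p. doses of 5×10^5 irradiated D121 cells, two weeks apart, or saline.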

[1] = tested on: Human breast cancer MDA-MB435 tumor tissue homogenate; assay type: biochemical; details: for Activation ratio (%) in homogenates from different tumor tissues: Human breast cancer MDA-MB435
Summary of the method: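 Compounds at 1 mg/ml incubated at 37° C. with 100 μg acidified (pH6.0) MDA-MB435 human breast tumor tissue homogenate, as a source of proteases for compound activation.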

tumor CD8+ T cells = assay type: in vivo, C57 mice
Summary of the method: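 Tumour tissue homogenised and single cells filtered, washed, then stained 1 h at ambient temperature with CD45-PE and CD8-FITC antibodies. After washes in PBS with 1% FBS, flow cytometry gave the fraction of CD8⁺ cells among CD45⁺ leucocytes.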

[2] = tested on: Human renal cancer OS-RC-2 tumor tissue homogenate; assay type: biochemical; details: for Activation ratio (%) in homogenates from different tumor tissues: Human renal cancer OS-RC-2
Summary of the method: (§1)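 Protease activation of compounds was measured in acidized tissue homogenates at 37° C, using 1 mg/ml compound per 100 μg homogenate.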

[3] = tested on: Human ovarian cancer SK-OV-3 tumor tissue homogenate; assay type: biochemical; details: for Activation ratio (%) in homogenates from different tumor tissues: Human ovarian cancer SK-OV-3
Summary of the method: as §1

[4] = tested on: Human liver cancer Hepg2 tumor tissue homogenate; assay type: biochemical; details: for Activation ratio (%) in homogenates from different tumor tissues: Human liver cancer Hepg2
Summary of the method: as §1

[5] = tested on: Human pancreatic cancer Panc-1 tumor tissue homogenate; assay type: biochemical; details: for Activation ratio (%) in homogenates from different tumor tissues: Human pancreatic cancer Panc-1
Summary of the method: as §1

[6] = tested on: Human non-small cell lung cancer A549 tumor tissue homogenate; assay type: biochemical; details: for Activation ratio (%) in homogenates from different tumor tissues: Human non-small cell lung cancer A549
Summary of the method: as §1

[7] = tested on: Human prostate cancer PC-3 tumor tissue homogenate; assay type: biochemical; details: for Activation ratio (%) in homogenates from different tumor tissues: Human prostate cancer PC-3
Summary of the method: as §1

[8] = tested on: Human chronic leukemia K562 tumor tissue homogenate; assay type: biochemical; details: for Activation ratio (%) in homogenates from different tumor tissues: Human chronic leukemia K562
Summary of the method: as §1

[9] = tested on: Human colon cancer HT-29 tumor tissue homogenate; assay type: biochemical; details: for Activation ratio (%) in homogenates from different tumor tissues: Human colon cancer HT-29
Summary of the method: as §1

[10] = Day 18, immunized C57 mice, drugs 13.2 μmol/kg, PDL1 antibody 5 μg/kg, weekly for 4 weeks
[11] = D121 immunized C57 mice, drugs weekly for 4 weeks, Day 18 (Example 23)
[12] = 100 μg acidized homogenate pH6.0, 1 mg/ml, 37°
[13] = D121 immunized C57 mice (Example 23), CD8 positive cells in CD45 positive cells of tumor

SMILES	Treatment effects on C57 mice, in words (D121 lung tumor cells)	Size of tumor (mm^3) Day 18 (D121 lung tumor cells; [11])	inhibitory rate on tumor % Day 18 (D121 lung tumor cells; [11])	Activation ratio (%) in homogenates from different tumor tissues [1, 12]	CD8: CD45 (%) (tumor CD8+ T cells; [13])	Activation ratio (%) in homogenates from different tumor tissues [2, 12]	Activation ratio (%) in homogenates from different tumor tissues [3, 12]	Activation ratio (%) in homogenates from different tumor tissues [4, 12]	Activation ratio (%) in homogenates from different tumor tissues [5, 12]	Activation ratio (%) in homogenates from different tumor tissues [6, 12]	Activation ratio (%) in homogenates from different tumor tissues [7, 12]	Activation ratio (%) in homogenates from different tumor tissues [8, 12]	Activation ratio (%) in homogenates from different tumor tissues [9, 12]	also measured
COCCOCC(=O)N[C@H](C)C(=O)N[C@H](C)C(=O)N[C@H](CC(N)=O)C(=O)Nc1ccc(COC(=O)N2[C@@H]3CN4C5=C(C(=O)C(N)=C(C)C5=O)[C@H](COC(N)=O)[C@]4(OC)[C@@H]32)cc1 [Compound E1, 2-(2-methoxyethoxy) acetyl-L-Ala-L-Ala-L-Asn-4-amino benzyl mitomycin]	greatly improved													Size of tumor (mm^3) Day 18 (D121 lung tumor cells; [10]): 237.60 ± 358.57 mm^3; inhibitory rate on tumor % Day 18 (D121 lung tumor cells; [10]): 83.27%; Effect together with PDL1-antibody in promoting immunization and treatment, in words (D121 lung tumor cells; combination with PDL1-antibody): excellent synergistic effect; Activation ratio (%) in homogenates from different tumor tissues ([1]; 37° C., 1 mg/ml): 97.3%; CD8: CD45 (%) (tumor CD8+ T cells; ratio of CD8 positive cells in CD45 positive cells of tumor, flow cytometry, drugs 13.2 μmol/kg, PDL1 antibody 5 μg/kg): 18.4%; Activation ratio (%) in homogenates from different tumor tissues ([2]; 37° C., 1 mg/ml): 99.7%; Activation ratio (%) in homogenates from different tumor tissues ([3]; 37° C., 1 mg/ml): 93.5%; Activation ratio (%) in homogenates from different tumor tissues ([4]; 37° C., 1 mg/ml): 94.6%; Activation ratio (%) in homogenates from different tumor tissues ([5]; 37° C., 1 mg/ml): 89.4%; Activation ratio (%) in homogenates from different tumor tissues ([6]; 37° C., 1 mg/ml): 97.4%; Activation ratio (%) in homogenates from different tumor tissues ([7]; 37° C., 1 mg/ml): 78.9%; Activation ratio (%) in homogenates from different tumor tissues ([8]; 37° C., 1 mg/ml): 74.5%; Activation ratio (%) in homogenates from different tumor tissues ([9]; 37° C., 1 mg/ml): 94.2%
CCCCCOC(=O)Nc1nc(=O)n([C@@H]2O[C@H](C)[C@@H](OC(=O)OCc3ccc(NC(=O)[C@H](CC(N)=O)NC(=O)[C@H](C)NC(=O)[C@H](C)NC(=O)CCCCCCC(=O)NO)cc3)[C@H]2O)cc1F [Compound S3, 4-N—(N—(N—(N-(8-(N-hydroxylamino)-1,8-octandioic acid-1-monoacyl)-L-alanyl)-L-alanyl)-L-asparaginyl)-amino benzyl alcohol-capecitabine-carbonic acid diester]	greatly improved													Size of tumor (mm^3) Day 18 (D121 lung tumor cells; D121 immunized C57 mice, 13.2 μmol/kg weekly, PDL1 antibody 5 μg/kg where combined, Day 18): 425.67 ± 126.67 mm^3; Activation Efficiencies (%) ([1]; Human breast cancer MDA-MB435 tumor tissue homogenate (30 μg/ml), 1 mg/ml compound): 70.1%; CD8: CD45 (%) (tumor CD8+ T cells; D121 immunized C57 mice, 13.2 μmol/kg, ratio of CD8 positive cells in CD45 positive cells of tumor): 18.4%; Activation Efficiencies (%) ([2]; Human renal cancer OS-RC-2 tumor tissue homogenate (30 μg/ml), 1 mg/ml compound): 67.4%; Activation Efficiencies (%) ([3]; Human ovarian cancer SK-OV-3 tumor tissue homogenate (30 μg/ml), 1 mg/ml compound): 94.3%; Activation Efficiencies (%) ([4]; Human liver cancer Hepg2 tumor tissue homogenate (30 μg/ml), 1 mg/ml compound): 94.5%; Activation Efficiencies (%) ([5]; Human pancreatic cancer Panc-1 tumor tissue homogenate (30 μg/ml), 1 mg/ml compound): 91.6%; Activation Efficiencies (%) ([6]; Human non-small cell lung cancer A549 tumor tissue homogenate (30 μg/ml), 1 mg/ml compound): 80.7%; Activation Efficiencies (%) ([7]; Human prostate cancer PC-3 tumor tissue homogenate (30 μg/ml), 1 mg/ml compound): 98.3%; Activation Efficiencies (%) ([8]; Human chronic leukemia K562 tumor tissue homogenate (30 μg/ml), 1 mg/ml compound): 93.2%; Activation Efficiencies (%) ([9]; Human colon cancer HT-29 tumor tissue homogenate (30 μg/ml), 1 mg/ml compound): 81.7%
COCCOCCOCCOCCOCCOCC(=O)N[C@H](C)C(=O)N[C@H](C)C(=O)N[C@H](CC(N)=O)C(=O)Nc1ccc(COC(=O)OC(C(=O)OC2C[C@@]3(O)[C@@H](OC(=O)c4ccccc4)[C@H]4[C@](C)(C(=O)[C@H](OC(C)=O)C(=C2C)C3(C)C)[C@@H](O)CC2OC[C@]24OC(C)=O)[C@@H](NC(=O)c2ccccc2)c2ccccc2)cc1 (some centres unmarked) [S2′]	greatly improved	331.57 ± 114.74 mm^3	78.9%	91.4%	18.1%	91.5%	84.6%	84.6%	93.8%	89.4%	98.4%	73.3%	89.9%	
COCCOCCOCCOCCOCCOCCOCCOCCOCCOCCOCCOCC(=O)N[C@H](C)C(=O)N[C@H](C)C(=O)N[C@H](CC(N)=O)C(=O)Nc1ccc(COC(=O)OC(C(=O)OC2C[C@@]3(O)[C@@H](OC(=O)c4ccccc4)[C@H]4[C@](C)(C(=O)[C@H](OC(C)=O)C(=C2C)C3(C)C)[C@@H](O)CC2OC[C@]24OC(C)=O)[C@@H](NC(=O)c2ccccc2)c2ccccc2)cc1 (some centres unmarked) [S3′]	greatly improved	357.63 ± 194.54 mm^3	77.3%	90.4%	16.7%	86.4%	79.3%	83.5%	91.5%	81.4%	96.3%	70.2%	91.4%	activation efficiency (%) ([1]; human breast cancer (MDA-MB435) tumor tissue homogenates pH6.0, 100 μg, 1 mg/ml, control compounds vs S1′-S4′): 91.5%
